Source: patent US4443436A, “C-20-Modified macrolide derivatives of the macrolide antibiotics tylosin, desmycosin, macrocin, and lactenocin” (Eli Lilly and Company, priority 1982, dated 1984)
In brackets after ≈: the same amount, converted by molar mass. Several values for one entry are separate records, joined by “and”; a condition that tells them apart may be missing. Equal values may be shown once. Read-outs that look alike come from different tables or passages of the source.

Columns and labels:
[1] = tested on: Pasteurella hemolytica 22C; test: MIC, broth-dilution microtiter test, Pasteurella hemolytica 22C; assay type: cell-based
Text: (§1) The MIC's in Table X were obtained using conventional broth-dilution microtiter tests.

[2] = tested on: Staphylococcus aureus S13E; test: MIC, standard agar-dilution assay, Staphylococcus aureus S13E; assay type: cell-based; conditions: Staphylococcus aureus, S13E
[3] = tested on: Streptococcus Group 9960; test: MIC, standard agar-dilution assay, Streptococcus Group 9960; assay type: cell-based; conditions: GROUP9960
[4] = tested on: Staphylococcus aureus V41; test: MIC, standard agar-dilution assay, Staphylococcus aureus V41; assay type: cell-based
[5] = tested on: Streptococcus Group D X66; test: MIC, standard agar-dilution assay, Streptococcus Group D X66; assay type: cell-based
[6] = tested on: Haemophilus influenzae Holt; test: MIC, standard agar-dilution assay, Haemophilus influenzae Holt; assay type: cell-based
[7] = tested on: Mycoplasma hyopneumoniae; test: MIC, broth-dilution microtiter test, Mycoplasma hyopneumoniae; assay type: cell-based; conditions: Mesomycoplasma hyopneumoniae; Mycoplasma hyopneumoniae; broth-dilution microtiter; read-out: MIC
Text: as §1

[8] = tested on: Staphylococcus aureus; test: MIC, broth-dilution microtiter test, Staphylococcus aureus; assay type: cell-based
Text: as §1

[9] = tested on: Mycoplasma gallisepticum; test: MIC, broth-dilution microtiter test, Mycoplasma gallisepticum; assay type: cell-based; conditions: Mycoplasmoides gallisepticum
Text: as §1

[10] = tested on: Pasteurella multocida; test: Subcutaneous treatment of Pasteurella multocida-infected chicks; assay type: in vivo, one-day-old chicks
Procedure: (§2) Many of the C-20 modified derivatives of this invention have also shown in vivo antibacterial activity against infections induced by gram-negative bacteria. Tables XII and XIII summarize the results of tests in which illustrative compounds were evaluated against Pasteurella infection in one-day-old chicks. The compounds were administered parenterally or orally after challenge of the chicks with Pasteurella multocida (0.1 ml of a 10^-4 dilution of a twenty-hour tryptose broth culture of an avian P. multocida given subcutaneously). In these tests, unless indicated otherwise, all non-medicated infected chicks died within 24 hours of Pasteurella challenge. In the tests summarized in Table XII the compounds were administered by subcutaneous injection at a dosage of 30 mg/kg, 1 and 4 hours post-challenge of the chicks with P. multocida. In the test summarized in Table XIII the compounds were administered by gavage at 1 and 5 hours post-challenge of the chicks with P. multocida.

[11] = tested on: Pasteurella multocida; test: Oral (gavage) treatment of Pasteurella multocida-infected chicks; assay type: in vivo, one-day-old chicks
Procedure: as §2

[12] = tested on: Haemophilus influenzae R252; test: MIC, standard agar-dilution assay, Haemophilus influenzae R252; assay type: cell-based
[13] = tested on: Staphylococcus aureus X400; test: MIC, standard agar-dilution assay, Staphylococcus aureus X400; assay type: cell-based
[14] = tested on: Staphylococcus aureus X1.1; test: MIC, standard agar-dilution assay, Staphylococcus aureus X1.1; assay type: cell-based
[15] = tested on: Streptococcus bovis 80; test: MIC, broth-dilution microtiter test, Streptococcus bovis 80; assay type: cell-based; conditions: Streptococcus equinus
Text: as §1

[16] = tested on: Mycoplasma hyorhinis; test: MIC, broth-dilution microtiter test, Mycoplasma hyorhinis; assay type: cell-based; conditions: Mycoplasma
Text: as §1

[17] = tested on: Streptococcus pyogenes C203; test: MIC, standard agar-dilution assay, Streptococcus pyogenes C203; assay type: cell-based
[18] = tested on: Pasteurella multocida 60A; test: MIC, broth-dilution microtiter test, Pasteurella multocida 60A; assay type: cell-based
Text: as §1

[19] = tested on: Staphylococcus epidermidis EPI1; test: MIC, standard agar-dilution assay, Staphylococcus epidermidis EPI1; assay type: cell-based
[20] = tested on: Streptococcus pneumoniae Park I; test: microbe, parasite or virus in culture; assay type: cell-based
[21] = tested on: Streptococcus pyogenes C203; test: In vivo protection of mice experimentally infected with S. pyogenes C203; conditions: Streptococcus pyogenes, mice, doses given 1 and 4 hours post-infection
Procedure: The C-20 modified derivatives of this invention have shown in vivo antimicrobial activity against experimentally-induced infections in laboratory animals. When two doses of test compound were administered to mice experimentally infected with S. pyogenes C203, the activity observed was measured as an ED50 value [effective dose in mg/kg to protect 50% of the test animals: see Warren Wick, et al., J. Bacteriol. 81, 233-235 (1961)].

[22] = tested on: Pasteurella multocida 17E; test: MIC, broth-dilution microtiter test, Pasteurella multocida 17E; assay type: cell-based
Text: as §1

[23] = tested on: Mycoplasma synoviae; test: MIC, broth-dilution microtiter test, Mycoplasma synoviae; assay type: cell-based; conditions: Mycoplasmopsis synoviae
Text: as §1

[24] = tested on: Staphylococcus epidermidis EPI2; test: MIC, standard agar-dilution assay, Staphylococcus epidermidis EPI2; assay type: cell-based
[25] = Pasteurella hemolytica 22C, broth-dilution microtiter, read-out: MIC
[26] = Staphylococcus aureus V41, penicillin-resistant strain, agar dilution, read-out: MIC
[27] = Streptococcus Group D X66, agar dilution, read-out: MIC
[28] = broth-dilution microtiter, read-out: MIC
[29] = Mycoplasma gallisepticum, broth-dilution microtiter, read-out: MIC
[30] = 30 mg/kg × 2, 1 and 4 hours post-challenge
[31] = Haemophilus influenzae R252, ampicillin-resistant strain, read-out: MIC
[32] = Staphylococcus aureus X400, methicillin-resistant strain, agar dilution, read-out: MIC
[33] = Pasteurella multocida 60A, avian isolate, broth-dilution microtiter, read-out: MIC
[34] = Staphylococcus epidermidis EPI1, agar dilution, read-out: MIC
[35] = C203, sc, subcutaneous, read-out: ED50, Subcutaneous
[36] = C203, oral, read-out: ED50, Oral
[37] = Pasteurella multocida 17E, bovine isolate, broth-dilution microtiter, read-out: MIC
[38] = Staphylococcus aureus X1.1, agar dilution, read-out: MIC
[39] = Mycoplasma synoviae, broth-dilution microtiter, read-out: MIC
[40] = Staphylococcus epidermidis EPI2, agar dilution, read-out: MIC
[41] = Streptococcus pyogenes C203, agar dilution, read-out: MIC
[42] = Staphylococcus epidermidis, EPI1
[43] = 2.0 g/gal equivalent, 11/20 infected nonmedicated chicks died in this test

SMILES	MIC [1, 25]	MIC [2]	MIC [4, 26]	MIC [5, 27]	MIC ([6]; Haemophilus influenzae)	MIC [7]	MIC [8, 28]	MIC [9, 29]	Number of Deaths/Number Treated [10, 30]	Number of Deaths/Number tested ([11]; 1.0 g/gal equivalent)	MIC [12, 31]	MIC [13, 32]	MIC ([14]; Staphylococcus aureus, X1.1)	MIC [15]; 80	MIC [16]	MIC [18, 33]	ED50 [21, 35]	ED50 [21, 36]	MIC [22, 37]	MIC ([20]; Streptococcus pneumoniae)	also measured
CCC1OC(=O)CC(O)C(C)C(OC2OC(C)C(O)C(N(C)C)C2O)C(CCCl)CC(C)C(=O)C=CC(C)=CC1COC1OC(C)C(O)C(OC)C1OC (stereo not shown) [Compound 21, 20-DH-DO-20-Chlorodesmycosin]	12.5 µg/mL (≈ 15.8 µM)	0.12 µg/mL (≈ 0.151 µM)	0.12 µg/mL (≈ 0.151 µM)	8 µg/mL (≈ 10.1 µM)	16 µg/mL (≈ 20.2 µM)	12.5 µg/mL (≈ 15.8 µM)	0.78 µg/mL (≈ 0.984 µM)	0.39 µg/mL (≈ 0.492 µM)	9/10	3/9	16 µg/mL (≈ 20.2 µM)	0.5 µg/mL (≈ 0.631 µM)	0.25 µg/mL (≈ 0.315 µM)	3.12 µg/mL (≈ 3.94 µM)	50 µg/mL (≈ 63.1 µM)	6.25 µg/mL (≈ 7.89 µM)	0.7 mg/kg	6 mg/kg	12.5 µg/mL (≈ 15.8 µM)		MIC ([3]; Streptococcus Group 9960, agar dilution, read-out: MIC): 8 µg/mL (≈ 10.1 µM); Number of Deaths/Number Treated ([10]; 30 mg/kg × 2, 8/10 infected nonmedicated chicks died in this test): 7/10; Number of Deaths/Number tested ([11]; 2.0 g/gal equivalent): 0/9 and 0/10; Number of Deaths/Number tested ([11]; 2.0 g/gal equivalent, 13/20 infected nonmedicated chicks died in this test): 2/10; MIC ([17]; Streptococcus pyogenes, C203): 0.25 µg/mL (≈ 0.315 µM); MIC [19, 34]: 0.12 µg/mL (≈ 0.151 µM); MIC ([20]; Streptococcus pneumoniae Park I, agar dilution, read-out: MIC): 1 µg/mL (≈ 1.26 µM)
CCC1OC(=O)CC(O)C(C)C(OC2OC(C)C(O)C(N(C)C)C2O)C(CCOC(C)=O)CC(C)C(=O)C=CC(C)=CC1COC1OC(C)C(O)C(OC)C1OC (stereo not shown) [Compound 29, 20-DH-20-O-Acetyldesmycosin]	25 µg/mL (≈ 30.6 µM)	0.25 µg/mL (≈ 0.306 µM)	0.5 µg/mL (≈ 0.613 µM)	8 µg/mL (≈ 9.8 µM)		12.5 µg/mL (≈ 15.3 µM)	0.78 µg/mL (≈ 0.956 µM)	0.39 µg/mL (≈ 0.478 µM)	5/10	3/10	16 µg/mL (≈ 19.6 µM)	0.5 µg/mL (≈ 0.613 µM)			50 µg/mL (≈ 61.3 µM)	25 µg/mL (≈ 30.6 µM)	3.4 mg/kg	36 mg/kg	12.5 µg/mL (≈ 15.3 µM)	0.25 µg/mL (≈ 0.306 µM)	MIC ([6]; Haemophilus influenzae Holt, ampicillin-sensitive strain, read-out: MIC): 16 µg/mL (≈ 19.6 µM); Number of Deaths/Number tested ([11]; 0.5 g/gal equivalent): 0/10; MIC [14, 38]: 0.5 µg/mL (≈ 0.613 µM); MIC [23, 39]: 1.56 µg/mL (≈ 1.91 µM); MIC ([15]; Streptococcus bovis 80, broth-dilution microtiter, read-out: MIC): 0.78 µg/mL (≈ 0.956 µM); MIC [24, 40]: 0.12 µg/mL (≈ 0.147 µM); MIC [17, 41]: 2 µg/mL (≈ 2.45 µM); MIC [19, 42]: 0.25 µg/mL (≈ 0.306 µM)
CCOC(=O)C1CSC(CC2CC(C)C(=O)C=CC(C)=CC(COC3OC(C)C(O)C(OC)C3OC)C(CC)OC(=O)CC(O)C(C)C2OC2OC(C)C(O)C(N(C)C)C2O)N1 (stereo not shown) [Compound 76]	25 µg/mL (≈ 27.7 µM)			466 µg/mL (≈ 516 µM)		0.19 µg/mL (≈ 0.21 µM)			3/10		3250 µg/mL (≈ 3600 µM)	2400 µg/mL (≈ 2660 µM)		3.12 µg/mL (≈ 3.45 µM)	50 µg/mL (≈ 55.4 µM)	25 µg/mL (≈ 27.7 µM)	4.8 mg/kg	17 mg/kg	25 µg/mL (≈ 27.7 µM)	0.25 µg/mL (≈ 0.277 µM)	MIC ([4]; Staphylococcus aureus, V41): 0.5 µg/mL (≈ 0.554 µM); MIC [8]: 0.78 µg/mL (≈ 0.864 µM); MIC [9]: 1.56 µg/mL (≈ 1.73 µM); Number of Deaths/Number tested ([11]; 0.5 g/gal equivalent): 3/10; Number of Deaths/Number tested ([11]; 1.0 g/gal equivalent, 13/20 infected nonmedicated chicks died in this test): 4/10; Number of Deaths/Number tested [11, 43]: 4/10; MIC [14, 38]: 0.51 µg/mL (≈ 0.565 µM); MIC [23]: 3.12 µg/mL (≈ 3.45 µM); MIC ([24]; Staphylococcus epidermidis, EPI2): 0.25 µg/mL (≈ 0.277 µM); MIC [17, 41]: 0.53 µg/mL (≈ 0.587 µM); MIC [19, 34]: 0.51 µg/mL (≈ 0.565 µM)
CCC1OC(=O)CC(O)C(C)C(OC2OC(C)C(O)C(N(C)C)C2O)C(CC2SCCN2Cc2ccccc2)CC(C)C(=O)C=CC(C)=CC1COC1OC(C)C(O)C(OC)C1OC (stereo not shown) [Compound 77]		0.25 µg/mL (≈ 0.271 µM)			16 µg/mL (≈ 17.4 µM)	0.19 µg/mL (≈ 0.206 µM)	0.39 µg/mL (≈ 0.423 µM)	0.09 µg/mL (≈ 0.0977 µM)					0.25 µg/mL (≈ 0.271 µM)	3.12 µg/mL (≈ 3.39 µM)	6.25 µg/mL (≈ 6.78 µM)		> 10 mg/kg	19 mg/kg		1 µg/mL (≈ 1.09 µM)	MIC ([1]; Pasteurella, 22C): 12.5 µg/mL (≈ 13.6 µM); MIC [3]: 4 µg/mL (≈ 4.34 µM); MIC ([4]; Staphylococcus aureus, V41): 0.25 µg/mL (≈ 0.271 µM); MIC [5]: 4 µg/mL (≈ 4.34 µM); Number of Deaths/Number Treated ([10]; 30 mg/kg × 2, 8/10 and 9/10 of two groups of infected nonmedicated chicks died): 8/10; Number of Deaths/Number tested [11, 43]: 4/10; MIC ([12]; Haemophilus influenzae, R252): 16 µg/mL (≈ 17.4 µM); MIC ([13]; Staphylococcus aureus, X400): 0.25 µg/mL (≈ 0.271 µM); MIC [23, 39]: 0.19 µg/mL (≈ 0.206 µM); MIC [24, 40]: 0.12 µg/mL (≈ 0.13 µM); MIC ([17]; Streptococcus pyogenes, C203): 0.25 µg/mL (≈ 0.271 µM); MIC ([18]; Pasteurella multocida, 60A): 12.5 µg/mL (≈ 13.6 µM); MIC [19, 42]: 0.25 µg/mL (≈ 0.271 µM); MIC ([22]; Pasteurella multocida, 17E): 12.5 µg/mL (≈ 13.6 µM)
